These molecules were tested against recombinant HCV NS5B (HCV RNA-dependent RNA polymerase) (Hepatitis C virus genotype 1b, UniProt P26663) (assay: biochemical). Conditions: related polymerase activity (Example 27 list); read-out: IC50.
recombinant HCV NS5B (HCV RNA-dependent RNA polymerase), sequence (P26663 2420-3010 limits assumed): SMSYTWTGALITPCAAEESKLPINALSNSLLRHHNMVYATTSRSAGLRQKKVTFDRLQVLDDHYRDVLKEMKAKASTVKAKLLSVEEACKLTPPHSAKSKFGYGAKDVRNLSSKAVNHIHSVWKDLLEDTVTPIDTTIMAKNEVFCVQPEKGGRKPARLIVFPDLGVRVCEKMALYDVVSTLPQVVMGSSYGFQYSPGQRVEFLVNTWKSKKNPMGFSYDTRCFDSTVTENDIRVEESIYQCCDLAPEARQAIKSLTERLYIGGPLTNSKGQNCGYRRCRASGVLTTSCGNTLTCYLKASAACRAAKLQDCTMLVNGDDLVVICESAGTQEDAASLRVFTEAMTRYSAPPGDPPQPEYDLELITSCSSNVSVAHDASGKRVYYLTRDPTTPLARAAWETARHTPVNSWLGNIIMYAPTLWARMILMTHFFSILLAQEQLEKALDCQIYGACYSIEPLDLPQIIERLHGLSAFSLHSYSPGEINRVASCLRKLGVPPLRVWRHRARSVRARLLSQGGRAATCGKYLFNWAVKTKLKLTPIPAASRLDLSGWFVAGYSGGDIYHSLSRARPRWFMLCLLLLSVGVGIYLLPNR
With `CC(C)(C)N(C(=O)c1ccc(Cl)cc1Cl)c1cc(-c2ccccc2)sc1C(=O)O` [Compound 327, 3-[#TERT!-BUTYL-(2,4-DICHLORO- BENZOYL)-AMINO]-5-PHENYL- THIOPHENE-2-CARBOXYLIC ACID] the IC50 was under 5 µM. In the case of `CC(C)N(C(=O)c1ccc(Cl)cc1N)c1cc(-c2ccccc2)sc1C(=O)O` [Compound 328, 3-[(2-AMINO-4-CHLORO-BENZOYL)- ISOPROPYL-AMINO]-5-PHENYL- THIOPHENE-2-CARBOXYLIC ACID], the IC50 is reported as under 5 µM. With `CC(C)N(C(=O)c1ccc(Cl)cc1[N+](=O)[O-])c1cc(-c2ccccc2)sc1C(=O)O` [Compound 329, 3-[(4-CHLORO-2-NITRO-BENZOYL)- ISOPROPYL-AMINO]-5-PHENYL- THIOPHENE-2-CARBOXYLIC ACID] the IC50 was under 5 µM. `Cc1ccc(C(=O)N(Cc2cccc(C(F)(F)F)c2)c2cc(-c3ccccc3)sc2C(=O)O)cc1` [Compound 330, 3-[(4-METHYL-BENZOYL)-(3- TRIFLUOROMETHYL-BENZYL)-AMINO]-5- PHENYL-THIOPHENE-2-CARBOXYLIC ACID] gave an IC50 of under 5 µM. Molecule `Cc1ccc(C(=O)N(c2cc(-c3ccccc3)sc2C(=O)O)C(C)C)cc1F` [Compound 331, 3-[(3-FLUORO-4-METHYL-BENZOYL)- ISOPROPYL-AMINO]-5-PHENYL- THIOPHENE-2-CARBOXYLIC ACID] has an IC50 of under 5 µM. `Cc1ccc(S(=O)(=O)Nc2cc(-c3ccc(C(=O)O)cc3)sc2C(=O)O)c(C)c1` [Compound 332, 5-(4-CARBOXY-PHENYL)-3-(2,4-DIMETHYL- BENZENESULFONYLAMINO)- THIOPHENE-2- CARBOXYLIC ACID] was tested, and the IC50 was under 5 µM. With `O=C(O)c1sc(-c2ccccc2)cc1N(C(=O)c1ccc(Cl)cc1Cl)C1CC1` [Compound 333, 3-[CYCLOPROPYL-(2,4-DICHLORO- BENZOYL)-AMINO]-5-PHENYL- THIOPHENE-2-CARBOXYLIC ACID] the IC50 was under 5 µM. In the case of `Cc1ccc(C(=O)N(Cc2cccc(C(C)(C)C)c2)c2cc(-c3ccccc3)sc2C(=O)O)cc1` [Compound 334, 3-[(3-TERT-BUTYL-BENZYL)-(4-METHYL- BENZOYL)-AMINO]-5-PHENYL- THIOPHENE-2-CARBOXYLIC ACID], the IC50 is reported as under 5 µM. Work on `Cc1ccc(C(=O)N(Cc2cccc(Cl)c2)c2cc(-c3ccccc3)sc2C(=O)O)cc1` [Compound 335, 3-[(3-CHLORO-BENZYL)-(4-METHYL- BENZOYL)-AMINO]-5-PHENYL- THIOPHENE-2-CARBOXYLIC ACID] yielded an IC50 of under 5 µM. Molecule `Cc1ccc(C(=O)N(Cc2ccc(F)cc2F)c2cc(-c3ccccc3)sc2C(=O)O)cc1` [Compound 336, 3-[(2,4-DIFLUORO-BENZYL)-(4-METHYL- BENZOYL)-AMINO]-5-PHENYL- THIOPHENE-2-CARBOXYLIC ACID] has an IC50 of under 5 µM. Work on `CC(C)N(C(=O)c1cc(F)c(Cl)cc1F)c1cc(-c2ccccc2)sc1C(=O)O` [Compound 337, 3-[(4-CHLORO-2,5-DIFLUORO-BENZOYL)- ISOPROPYL-AMINO]-5-PHENYL- THIOPHENE-2-CARBOXYLIC ACID] yielded an IC50 of 5 to 20 µM. In the case of `C=C(C)Cc1cc(N(C(=O)c2ccc(Cl)cc2Cl)C(C)C)c(C(=O)O)s1` [Compound 338, 3-[(2,4-DICHLORO-BENZOYL)- ISOPROPYL-AMINO]-5-(2-METHYL- ALLYL)-THIOPHENE- 2-CARBOXYLIC ACID], the IC50 is reported as under 5 µM. `C=CCN(C(=O)Cc1ccc(Cl)cc1)c1cc(-c2ccccc2)sc1C(=O)O` [Compound 339, 3-(ALLYL-[2-(4-CHLORO-PHENYL)- ACETYL]-AMINO)-5-PHENYL-THIOPHENE- 2-CARBOXYLIC ACID] showed an IC50 of 5 to 20 µM. `Cc1ccc(C(=O)N(Cc2ccccc2)c2cc(-c3ccccc3)sc2C(=O)O)cc1` [Compound 340, 3-[BENZYL-(4-METHYL-BENZOYL)- AMINO]-5-PHENYL-THIOPHENE-2- CARBOXYLIC ACID] was tested, and the IC50 was under 5 µM. For `Cc1ccc(C(=O)N(Cc2ccc(Cl)cc2)c2cc(-c3ccccc3)sc2C(=O)O)cc1` [Compound 341, 3-[(4-CHLORO-BENZYL)-(4-METHYL- BENZOYL)-AMINO]-5-PHENYL- THIOPHENE-2-CARBOXYLIC ACID], the IC50 was under 5 µM. `Cc1ccc(C(=O)N(Cc2ccc([N+](=O)[O-])cc2)c2cc(-c3ccccc3)sc2C(=O)O)cc1` [Compound 342, 3-[(4-METHYL-BENZOYL)-(4-NITRO- BENZYL)-AMINO]-5-PHENYL-THIOPHENE- 2-CARBOXYLIC ACID] was tested, and the IC50 was under 5 µM. `Cc1ccc(C(=O)N(Cc2ccccc2C)c2cc(-c3ccccc3)sc2C(=O)O)cc1` [Compound 343, 3-[(4-METHYL-BENZOYL)-(2-METHYL- BENZYL)-AMINO]-5-PHENYL-THIOPHENE- 2-CARBOXYLIC ACID] gave an IC50 of under 5 µM. For `COc1cccc(CN(C(=O)c2ccc(C)cc2)c2cc(-c3ccccc3)sc2C(=O)O)c1` [Compound 344, 3-[(3-METHOXY-BENZYL)-(4-METHYL- BENZOYL)-AMINO]-5-PHENYL- THIOPHENE-2-CARBOXYLIC ACID], the IC50 was under 5 µM. For `Cc1ccc(C(=O)N(Cc2ccccc2Cl)c2cc(-c3ccccc3)sc2C(=O)O)cc1` [Compound 345, 3-[(2-CHLORO-BENZYL)-(4-METHYL- BENZOYL)-AMINO]-5-PHENYL- THIOPHENE-2-CARBOXYLIC ACID], the IC50 was under 5 µM. `CC(C)Cc1cc(N(C(=O)c2ccc(Cl)cc2Cl)C(C)C)c(C(=O)O)s1` [Compound 346, 3-[(2,4-DICHLORO-BENZOYL)- ISOPROPYL-AMINO]-5-ISOBUTYL- THIOPHENE-2-CARBOXYLIC ACID] was tested, and the IC50 was under 5 µM. With `C=CCN(C(=O)Cc1ccc2ccccc2c1)c1cc(-c2ccccc2)sc1C(=O)O` [Compound 347, 3-[ALLYL-(2-NAPHTHALEN-2-YL-ACETYL)- AMINO]-5-PHENYL-THIOPHENE-2- CARBOXYLIC ACID] the IC50 was over 20 µM. `C=CCN(C(=O)Cc1ccc(Cl)cc1Cl)c1cc(-c2ccccc2)sc1C(=O)O` [Compound 348, 3-{ALLYL-[2-(2,4-DICHLORO-PHENYL)- ACETYL]-AMINO}-5-PHENYL-THIOPHENE- 2-CARBOXYLIC ACID] gave an IC50 of 5 to 20 µM. With `C=CCN(C(=O)Cc1ccc(F)cc1Cl)c1cc(-c2ccccc2)sc1C(=O)O` [Compound 349, 3-{ALLYL-[2-(2-CHLORO-4-FLUORO- PHENYL)-ACETYL]-AMINO}-5-PHENYL- THIOPHENE-2-CARBOXYLIC ACID] the IC50 was 5 to 20 µM. With `C=CCN(C(=O)Cc1ccc(Cl)c(Cl)c1)c1cc(-c2ccccc2)sc1C(=O)O` [Compound 350, 3-{ALLYL-[2-(3,4-DICHLORO-PHENYL)- ACETYL]-AMINO}-5-PHENYL-THIOPHENE- 2-CARBOXYLIC ACID] the IC50 was 5 to 20 µM. With `C=CCN(C(=O)Cc1ccc(F)cc1F)c1cc(-c2ccccc2)sc1C(=O)O` [Compound 351, 3-{ALLYL-[2-(2,4-DIFLUORO-PHENYL)- ACETYL]-AMINO}-5-PHENYL-THIOPHENE- 2-CARBOXYLIC ACID] the IC50 was 5 to 20 µM. In the case of `C=CCN(C(=O)Cc1ccc(C(F)(F)F)cc1)c1cc(-c2ccccc2)sc1C(=O)O` [Compound 352, 3-{ALLYL-[2-(4-TRIFLUOROMETHYL- PHENYL)-ACETYL]-AMINO}-5-PHENYL- THIOPHENE-2-CARBOXYLIC ACID], the IC50 is reported as over 20 µM. Molecule `C=CCN(C(=O)Cc1c(Cl)cccc1Cl)c1cc(-c2ccccc2)sc1C(=O)O` [Compound 353, 3-{ALLYL-[2-(2,6-DICHLORO-PHENYL)- ACETYL]-AMINO}-5-PHENYL-THIOPHENE- 2-CARBOXYLIC ACID] has an IC50 of 5 to 20 µM. Work on `C=CCN(C(=O)Cc1cccc(C)c1)c1cc(-c2ccccc2)sc1C(=O)O` [Compound 354, 3-[ALLYL-(2-M-TOLYL-ACETYL)-AMINO]-5- PHENYL-THIOPHENE-2-CARBOXYLIC ACID] yielded an IC50 of 5 to 20 µM. `CC(=O)c1ccc(-c2cc(N(C(=O)c3ccc(Cl)cc3Cl)C(C)C)c(C(=O)O)s2)cc1` [Compound 355, 5-(4-ACETYL-PHENYL)-3-[)2,4-DICHLORO- BENZOYL)-ISOPROPYL-AMINO]- THIOPHENE-2-CARBOXYLIC ACID] was tested, and the IC50 was under 5 µM. In the case of `CC(C)N(C(=O)c1ccc(Cl)cc1Cl)c1cc(-c2ccc(F)cc2)sc1C(=O)O` [Compound 356, 3-[(2,4-DICHLORO-BENZOYL)- ISOPROPYL-AMINO]-5-(4-FLUORO- PHENYL)-THIOPHENE-2-CARBOXYLIC ACID], the IC50 is reported as under 5 µM. With `Cc1cccc(-c2cc(N(C(=O)c3ccc(Cl)cc3Cl)C(C)C)c(C(=O)O)s2)c1` [Compound 357, 3-[(2,4-DICHLORO-BENZOYL)- ISOPROPYL-AMINO]-5-M-TOLYL- THIOPHENE-2-CARBOXYLIC ACID] the IC50 was under 5 µM. With `CC(=O)c1ccc(-c2cc(N(C(=O)c3ccc(Cl)cc3Cl)C(C)C)c(C(=O)O)s2)s1` [Compound 358, 5′-ACETYL-4-[(2,4-DICHLORO-BENZOYL)- ISOPROPYL-AMINO]-[2,2′]BITHIOPHENYL- 5-CARBOXYLIC ACID] the IC50 was under 5 µM. For `CC(C)N(C(=O)c1ccc(Cl)cc1Cl)c1cc(-c2cccc(C(F)(F)F)c2)sc1C(=O)O` [Compound 359, 3-[(2,4-DICHLORO-BENZOYL)- ISOPROPYL-AMINO]-5-(3- TRIFLUOROMETHYL-PHENYL)- THIOPHENE-2-CARBOXYLIC ACID], the IC50 was under 5 µM. `COc1ccc(-c2cc(NS(=O)(=O)c3ccc(C)cc3C)c(C(=O)O)s2)cc1` [Compound 361, 3-(2,4-DIMETHYL- BENZENESULFONYLAMINO)-5-(4- METHOXY-PHENYL)-THIOPHENE-2- CARBOXYLIC ACID] gave an IC50 of under 5 µM. `CC(C)N(C(=O)C1CCCCC1)c1cc(-c2ccccc2)sc1C(=O)O` [Compound 362, 3-(CYLCOHEXANECARBONYL- ISOPROPYL-AMINO)-5-PHENYL- THIOPHENE-2-CARBOXYLIC ACID] showed an IC50 of 5 to 20 µM. In the case of `O=C(O)c1sc(-c2ccccc2)cc1N(C(=O)c1ccc(Cl)cc1Cl)C1CCN(C(=O)c2ccc(Cl)cc2Cl)CC1` [Compound 363, 3-[(2,4-DICHLORO-BENZOYL)-[1-(2,4- DICHLORO-BENZOYL)-PIPERIDIN-4-YL]- AMINO)-5-PHENYL-THIOPHENE-2- CARBOXYLIC ACID], the IC50 is reported as under 5 µM. `Cc1ccc(C(=O)N(c2cc(-c3ccccc3)sc2C(=O)O)C2CCN(C(=O)OC(C)(C)C)CC2)cc1` [Compound 364, 4-[(2-CARBOXY-5-PHENYL-THIOPHEN-3- YL)-(4-METHYL-BENZOYL)-AMINO]- PIPERIDINE-1-CARBOXYLIC ACID #TERT!-BUTYL ESTER] was tested, and the IC50 was under 5 µM. Molecule `CC(C)(C)OC(=O)N1CCC(N(C(=O)c2ccc(Cl)cc2Cl)c2cc(-c3ccccc3)sc2C(=O)O)CC1` [Compound 365, 4-[(2-CARBOXY-5-PHENYL-THIOPHEN-3- YL)-(2,4-DICHLORO-BENZOYL)-AMINO]- PIPERIDINE-1-CARBOXYLIC ACID #TERT!-BUTYL ESTER] has an IC50 of under 5 µM.

Source: patent publication US6881741B2 (ViroChem Pharma Inc., priority 2001, dated 2005)
